# Data published in US9381210B2 (Wisconsin Alumni Research Foundation, priority 2013, dated 2016).
# B1: G-CSF: cytokine used at 10 ng/ml to induce OLFM4 expression in sCD34+ cells (protein, UniProt P09919 31-207, looked up)
# Granulocyte …: TPLGPASSLPQSFLLKCLEQVRKIQGDGAALQEKLVSECATYKLCHPEELVLLGHSLGIPWAPLSSCPSQALQLAGCLSQLHSGLFLYQGLLQALEGISPELGPTLDTLQLDVADFATTIWQQMEELGMAPALQPTQGAMPAFASAFQRRAGGVLVASHLQSFLEVSYRVLRHLAQP
# Key:
# OLFM4 [1] = experiment: OLFM4 expression by QPCR in CML iCD34+ cells; assay type: cell-based, human; conditions: CML iCD34+ cells treated with imatinib
# Description: iPSCs-derived lin^−CD34^+CD45^+ cells and somatic CML bone marrow lin^−CD34^+ were transfected with 100 nM of either siOLFM4 or scrambled (AllStars Neg. siRNA AF 488) using HiPerfect transfection reagent according to the manufacturer's protocol (all from Qiagen). The transfection efficiency was 50-60% as evaluated by using control ALLStars Neg. siRNA AF488. As determined by QPCR performed 24 hours after transfection, the silencing efficiency was 70-75% (FIG. 9D).
# RNA was isolated from the cell subpopulations using PureLink RNA mini kit (Life Technologies). cDNA synthesis was carried out using Advantage RT-for-PCR kit (Clontech). Quantitative real-time PCR analysis was performed using Gand PlatinumSYBR Green qPCR SuperMix-UDG kit (Life Technologies) and self-designed specific primers for BCR-ABL (forward […] (SEQ ID NO:1); reverse […] (SEQ ID NO:2)), OLFM4 (forward […] (SEQ ID NO:3); reverse […] (SEQ ID NO:4)) and GAPDH (forward […] (SEQ ID NO:5); reverse […] (SEQ ID NO:6)).
# The reactions were run on a Mastercyclerep Realplex™ thermal cycler (Eppendorf) and expression levels were calculated by minimal cycle threshold values (Ct) normalized to the reference expression of GAPDH in each sample (Pfaffl, 2001). When specified, K562 was used as a reference. All QPCR products were analyzed on 1.2% agarose gels to confirm the specificity of detection.
# CML sCD34+ cells [2] = experiment: Hematopoietic colony-forming assay; assay type: cell-based, human
# Excerpt: CD43^+ hematopoietic cells were collected from differentiated iPSC cultures using MACS and labeled with CD235a/CD41a FITC, CD45 APC and CD38 PE (BD Pharmingen). Lin^−CD45^+CD38^+ and lin^−CD45^+CD38^− subpopulations were obtained by fluorescence-activated cell sorter (FACSAria) (Vodyanik et al., 2006). Bone marrow mononuclear cells from CML patients in the chronic phase were purchased commercially (AllCells or Applied StemCells), or obtained from the patients at the University of Wisconsin Hospital and Clinics (Madison, Wis.) with approval from the University of Wisconsin Institutional Review Board. Donors had previously signed an Institutional Review Board-approved consent. Bone marrow cells from healthy donors were obtained from Cincinnati Children's Hospital Medical Center (CCHMC). Mononuclear cells were labeled with the lineage-specific markers CD2, CD3, CD14, CD15, CD16, CD19, CD20, CD24, CD41a, CD56, CD66b, and Glycophorin A (FITC-conjugated antibodies), CD34 APC (BD Pharmingen) and DAPI to exclude dead cells. Live lin^−CD34^+ cells were isolated using FACSAria (BD).
# Hematopoietic clonogenic assays were performed using serum-containing StemMACS semisolid clonogenic medium (Miltenyi Biotec, CA). Colonies were scored after fourteen to 21 days of incubation.
# CML iCD34+ cells = experiment: Adhesion assay to fibronectin; assay type: cell-based, human; conditions: 5 μM imatinib, 24 hours
# iCML CD34+ cells = conditions: CFSE cultures, 5 μM imatinib, four days, annexin V
# Description: Differentiated cells were labeled with 1 μM carboxy-fluorescein diacetate succinimidyl diester (CFSE; Molecular Probes, Eugene, Oreg.) as previously described (Copland et al., 2006; Holtz et al., 2002). These cells were then incubated overnight in CSSM medium supplemented with growth factors to allow excess unbound dye to leak out of the cells. Cells cultured in the presence of 10 μg/ml mitomycin C (Sigma Aldrich) were used to establish the CFSEmax (undivided cell population). The next day, CFSE^bright cells were sorted by FACArias to exclude non-labeled and CFSE^dim populations. […] At the end of the culture period, cells were stained with CD34-APC and 7AAD for flow cytometry analysis. The percentage of cells in each generation was determined using FlowJo software (Tree Star, Ashland, Oreg.), with the position of the parent generation set on the basis of the fluorescence profile of undivided cells.
# CML sCD34+ cells [3] = experiment: Long-term culture initiating cell assay (LTC-IC); assay type: cell-based, human; conditions: imatinib
# Description: Sorted iPSC-derived lin^−CD34^+CD45^+ cells were plated in a six-well plate at 10^4 cells/well containing 5-7 day-old cultures of murine 1×10^5 M2-10B4 and OP9 stromal cells (1:1 ratio mix) in LTC-IC medium consisting of SFM supplemented with 10 μM hydrocortisone, 50 ng/ml SCF, 5 ng/ml IL3, and 50 ng/ml IL6. Cultures were maintained at 37° C. in a humidified atmosphere with 5% CO2, and fed at weekly intervals. After five weeks, cells were harvested and analyzed for CFC potential as described above. LTC-IC assay for somatic lin^−CD34^+CD45^+ cells was performed using M2-10B4 cells exactly as described in the Stem Cell Technologies protocol to be found online at stemcell.com/en/Technical-Resources/db5a9/28412_Itc_ic-H.aspx.
# sCD34+ cells = experiment: Cell proliferation assay; assay type: cell-based, human; conditions: serum-free cultures without cytokines, OLFM4 300 ng/ml
# Description: Total lin^−CD34^+, lin^−CD34^+CD38^− or lin^−CD34^+CD38^+ were plated in triplicate in 96-well plate at 10^3 cells/well. […] When specified, the 300 ng/ml OLFM4 (Acro Biosystem) or the following growth factors were added: 10 ng/ml IL3, 100 ng/ml SCF, 100 ng/ml Flt3L, 100 ng/ml IL6 and 200 ng/ml GM-CSF. Viable cell yields were determined by counting trypan blue excluding viable cells using a hemocytometer.
# [4] = system: lin-CD34+ cells from CML bone marrow; experiment: Xenograft of siRNA-treated CML lin-CD34+ cells; assay type: in vivo, Nod scid gamma (NSG) mice; conditions: four mice, 16 weeks; two out of four control siRNA animals engrafted
# Description: Sorted lin^−CD34^+ cells from CML bone marrow were transduced with either AllStars Negative control or OLFM4 siRNA for 24 hours. Cells were then washed and transplanted into Nod scid gamma (NSG) mice at 5-10×10^3 cells. Four mice were injected with cells treated with control siRNA and four mice were injected with OLFM4 siRNA. The mice were then analyzed at 16 weeks using flow cytometry for live human CD45^+ cells in bone marrow, liver, spleen, and peripheral blood.
# The cultured cells were labeled with human CD45, mouse CD45 and DAPI and sorted for live human CD45^+ mouse CD45^− cells. The sorted cells were then plated in methyl cellulose media for hematopoietic progenitor assay and RNA extracted for PCR.
# OLFM4 [5] = experiment: OLFM4 expression by RT-PCR/QPCR in sCD34+ cells; assay type: cell-based, human; conditions: sCD34+ cells treated with G-CSF (10 ng/ml, 24 hours)
molecule,measurement,setting,value
"Cc1ccc(NC(=O)c2ccc(CN3CCN(C)CC3)cc2)cc1Nc1nccc(-c2cccnc2)n1 [imatinib, 4-[(4-methylpiperazin-1-yl)methyl]-N-(4-methyl-3-{[4-(pyridin-3-yl)pyrimidin-2-yl]amino}phenyl)benzamide]",OLFM4 expression (QPCR),OLFM4 [1],augmentation of OLFM4 expression
same,response of parental bone marrow cells to imatinib (myeloid CFC potential),"CML sCD34+ cells [2]; parental lin-CD34+ BM cells of the CML patient, 5 μM imatinib, 24 hours pretreatment",sensitivity
same,adhesion to fibronectin,CML iCD34+ cells,partially restored
same,apoptosis in more mature iCD34dim and iCD34- cells,iCML CD34+ cells,substantial increase in apoptosis
same,apoptosis in most primitive iCD34bright cells,iCML CD34+ cells,resistant to imatinib-induced apoptosis
same,LTC-ICs,CML sCD34+ cells [3],little effect
OLFM4: OLFM4 protein (Acro Biosystem) added to medium at 300 ng/ml; secreted glycoprotein,reversal of the knockdown effect on CFCs by OLFM4 pretreatment,"CML sCD34+ cells [2]; CML sCD34+ cells, OLFM4 protein 300 ng/ml",can be reversed
same,proliferation of sCD34+ cells,sCD34+ cells,potentiates expansion
same,proliferation of sCD34+ cells,sCD34+ cells; listed as OLFM4 protein,enhanced proliferation
same,animals showing engraftment (live human CD45+ cells),[4],none
B1,OLFM4 expression,OLFM4 [5],rapidly induced
